From patent publication US20110091484A1, “Compositions and methods for preventing or treating a viral infection” (priority 2005, published 2011)
Where “and” joins values, the source holds several entries; their conditions need not be identical. Equal values may be shown once.

Test system: WR vaccinia virus-infected 143B cell cultures
Type: in vivo, mice

## CC(C)Cn1cnc2c(N)nc3ccccc3c21 [Imiquimod]
  % Inhibition (plaque inhibition): 13% and 22.6%
